In patent US20140371267A1, “OPHTHALMIC COMPOSITION WITH NITRIC OXIDE DONOR COMPOUND AND METHOD OF FORMING AND USING SAME” (ALCON RESEARCH, LTD., priority 2009, published 2014):

Legend:
ARPE-19 cells = assay: 7-ketocholesterol-induced RPE cell death, WST-1 cell viability; type: cell-based; details: for % Survival: compared to media-treated cells
Procedure: Compound 1 was evaluated for its ability to prevent 7-ketocholesterol-induced retinal pigmented epithelial (RPE) cell death in vitro. ARPE-19 cells were grown in DMEM:F12 (Invitrogen) (1:1) with 10% FBS (HyClone) and 56 mM Na Bicarbonate (Gibco) in a 10% CO2 humidified 37° C. incubator. Cells were split at a ratio of 1:3 once per week and fed every 2-3 days. ARPE-19 cells were plated at a density of 12,500 cells per well in 100 μL, which is approximately […].
7-ketocholesterol (5-CHOLESTEN-3β-OL-7-ONE) and Cholesterol (5-CHOLESTEN-3β-OL) (Steraloids, Inc., Newport R.I.) were resuspended in 37° C. 45% 2-hydroxylpropyl-β-cyclodextrin at a concentration of 10 mM. Working dilutions of 1 mM are subsequently made in 37° C. DMEM:/F12 containing 0.1% FBS and NaBicarb. Further dilutions (5 to 30 μM) for treatment were also made in 37° C. DMEM:F12 with 0.1% FBS and NaBicarb to maintain activity of the 7-ketocholesterol. As negative controls, vehicle alone and cholesterol suspended in 2-HP-β-cyclodextrin were included in each experiment.
Cell proliferation reagent WST-1 (Roche), a tetrazolium salt that is cleaved to formazan through the mitochondrial succinate-tetrazolium-reductase system in live cells, was used as a measure of cell viability. Cells were treated with 7-ketocholesterol for 1 day, at which time 10 μL at of WST-1 reagent was added to each well containing 100 μL at of media. The plates were then incubated for 1-4 hours to allow for adequate color development and then absorbance was read in a microplate ELISA reader at […]. WST reagent was also added to one set of control wells containing media only. These readings were subtracted from each of the WST readings as background. Cell viability for all treated wells was normalized to the well with untreated cells and data is presented as percent survival as compared to untreated. The table below summarizes the results.

[1] = tested on: cynomolgus monkeys with ocular hypertension; assay: IOP reduction in lasered ocular hypertensive monkeys; type: in vivo; details: 150 μg in 30 μL drop, topical, lasered eye
Procedure: The ability of compound 1 of the present invention to reduce IOP was evaluated in cynomolgus monkeys with ocular hypertension produced by previous laser trabeculoplasty in the right eye. Animals had been trained to sit in restraint chairs and conditioned to accept experimental procedures without chemical restraint. Animals were administered a 30 μL drop containing 150 μg of compound 1 dissolved in vehicle to the lasered eye. IOP was determined with a pneumatonometer after light corneal anesthesia with dilute proparacaine. The drug was dosed 35 minutes after the baseline IOP was measured.

[2] = in vitro; versus GTN and SNAP; cited from earlier work
c-GMP = details: cited from earlier work
[3] = vasodilators; cited from earlier work

SMILES | % Survival (ARPE-19 cells; 7-ketocholesterol 20 μM alone, 1 day) [%] | RPE cytoprotection (ARPE-19 cells; 10 μM) | RPE cytoprotection (ARPE-19 cells; 100 μM) | % Survival (ARPE-19 cells; compound at 100 nM, 7-ketocholesterol-treated cells) [%] | % Survival (ARPE-19 cells; compound at 1 μM, 7-ketocholesterol-treated cells) [%] | % Survival (ARPE-19 cells; compound at 10 μM, 7-ketocholesterol-treated cells) [%] | % Survival (ARPE-19 cells; compound at 100 μM, 7-ketocholesterol-treated cells) [%] | % IOP change from baseline ([1]; 1 hour after dosing) [%] | % IOP change from baseline ([1]; 3 hours after dosing) [%] | % IOP change from baseline ([1]; 6 hours after dosing) [%] | vasorelaxation efficacy [2] | c-GMP concentration (c-GMP) | c-GMP effect relative to GTN (c-GMP) | NO-tolerance in vivo [3]
CC(C)CCC[C@@H](C)[C@H]1CC[C@H]2[C@@H]3C(=O)C=C4C[C@@H](O)CC[C@]4(C)[C@H]3CC[C@]12C [7-ketocholesterol, 5-CHOLESTEN-3β-OL-7-ONE, reference compound] | 50 |  |  |  |  |  |  |  |  |  |  |  |  | 
CC1(C)CC(O[N+](=O)[O-])CC(C)(C)N1[O] [Compound 1] |  | significant | complete | 60 | 60 | 75 | 100 | −15.3 | −16.7 | −20.7 | superior activity | significant increase | comparable to that of GTN | do not produce NO-tolerance in vivo
CC1(C)CC(CO[N+](=O)[O-])C(C)(C)N1[O] (stereo not drawn) [Compound 2, 3-Nitratomethyl-Proxyl] |  |  |  |  |  |  |  |  |  |  |  |  |  | do not produce NO-tolerance in vivo
